Data published in patent US20110118353A1, “METHOD OF HORMONE SUPPRESSION IN HUMANS” (N. V. Organon, priority 2007, published 2011).

Key:
Format in all cases: in vivo, human
LH [1] = experiment: Experiment 1: single rising oral dose trial, serum LH (DELFIA); conditions: healthy male volunteers, single oral doses 0.5-30 mg, 0 to 12 hours post-dose, vs placebo
Method: (§1) A double-blind, cross-over, placebo controlled, single rising oral dose trial with compound 1 was carried out in healthy male volunteers to assess its tolerability, safety, pharmacokinetic and pharmacodynamic profile.
(§2) This was a double-blind, placebo-controlled, single rising oral dose study in 16 subjects. Each subject was assigned to one of 4 dosing groups and received 3 successive single oral doses of compound 1 and placebo in a four-way cross-over design. Subjects were male volunteers with a good physical and mental health, aged 18-45 years, body mass index […]. […]
(§3) LH and FSH were measured using a DELFIA assay. […] Testosterone was measured using a DELFIA testosterone assay; a solid phase fluoro-immuno-assay based on competition between Europium-labeled Testosterone and sample Testosterone.
(§4) Effect of treatment was characterised by calculating areas under the effect curve (AUE) over 0-4 h and 0-final assessment time periods. AUEs were calculated with the linear trapezoidal rule using protocol times. […] All measures were analysed using analysis of variance with factors subject and treatment and with the prevalue as covariate. A linear contrast on dose group was calculated with dose groups assigned in ascending order.

FSH [2] = experiment: Experiment 1: single rising oral dose trial, serum FSH (DELFIA); conditions: healthy male volunteers, single oral doses 0.5-30 mg, 0-12 h period; slower than LH
Method: as §1, §2, §3, §4

testosterone [3] = experiment: Experiment 1: single rising oral dose trial, serum testosterone (DELFIA); conditions: healthy male volunteers, single oral doses 0.5-30 mg, 0-12 h period; slower than LH
Method: as §1, §2, §3, §4

LH [4] = experiment: Experiment 2: single-dose crossover trial, serum LH (DELFIA); conditions: healthy male volunteers, single oral doses 5, 13, 20 mg
Excerpt: (§5) A single-dose, double-blind, placebo-controlled, randomized, crossover trial to evaluate visual effects of compound 1 in healthy male volunteers
(§6) This was a double-blind, placebo-controlled, four-period crossover study involving the administration of three single oral doses of compound 1 and placebo in 24 healthy male subjects. For each subject the compound 1 treatments were randomized in ascending order, each treatment period was separated by at least 3 days wash-out. Subjects were male volunteers with a good physical and mental health, aged 18-45 years, body mass index 18-28 kg/m^2.
(§7) A freeze dried cake of compound 1 (Batch No CW122) was reconstituted with de-ionized water BP and subsequently diluted with gelatin/mannitol to 50 mL solution for oral administration. Dose levels of compound 1 used in this trial were: 5 mg, 13 mg and 20 mg
(§8) Serum samples for LH, FSH and testosterone analysis were taken at time points: pre-dose and 20′, 45′, 1h10′, 1h35′, 2h, 2h25′, 2h50′, 3h15′, 4h, 6h, 8h, 12h, 16h and 24h post-dose. Serum was stored at −40° C.
(§9) LH and FSH were measured using a DELFIA assay. The DELFIA LH and DELFIA FSH assays are solid phase, two-site fluoroimmunometric assays based on the direct sandwich technique. Testosterone was measured using a DELFIA testosterone assay; a solid phase fluoro-immuno-assay based on competition between Europium-labeled Testosterone and sample Testosterone.
(§10) Descriptive statistics for serum FSH, LH and testosterone concentrations were calculated, both as absolute values and as percentage of baseline. In addition the following parameters were calculated: Cmin, tmin, Cmean,0-24, both Cmin and Cmean,0-24 were expressed in absolute values and as percentage of baseline. No formal statistical analysis was done on these PD parameters. Only descriptive statistics were calculated by dose. Furthermore, summary plots of the PD parameters versus treatment were made

FSH [5] = experiment: Experiment 2: single-dose crossover trial, serum FSH (DELFIA); conditions: healthy male volunteers, single oral doses 5, 13, 20 mg
Excerpt: as §5, §6, §7, §8, §9, §10

testosterone [6] = experiment: Experiment 2: single-dose crossover trial, serum testosterone (DELFIA); conditions: healthy male volunteers, single oral doses 5, 13, 20 mg
Excerpt: as §5, §6, §7, §8, §9, §10

LH [7] = experiment: Experiment 3: multiple oral dose study, serum LH (DELFIA); conditions: healthy male volunteers, 4, 8, 16 mg q.d. or 12 mg b.i.d. oral
Excerpt: (§11) A phase I, double-blind, placebo-controlled, parallel group, multiple oral dose and multiple ascending dose study with compound 1 in healthy male volunteers to assess the safety, tolerability, pharmacokinetics and pharmacodynamics of compound 1 after single, multiple and multiple ascending doses.
(§12) This was a single center, double-blind, placebo-controlled, parallel group design. A total of 40 subjects were randomized over 5 groups of 8 subjects; within each group 6 subjects received multiple oral doses of compound 1 and 2 subjects received placebo. Subjects were male volunteers with a good physical and mental health, aged 18-45 years, body mass index 18-28 kg/m^2.
(§13) Freeze dried cake of compound 1 (Batch No. CW 186) was supplied in 10 mL vials (50 mg active entity in 10 mL vials). The freeze dried cake was reconstituted with sterile de-ionized water B.P and subsequently diluted with sterile de-ionized water to a dose volume of 50 mL. […]
(§14) LH and FSH were measured using a DELFIA assay. […] Testosterone was measured using a DELFIA testosterone assay; a solid phase fluoro-immuno-assay based on competition between Europium-labeled Testosterone and sample Testosterone. […]

FSH [8] = experiment: Experiment 3: multiple oral dose study, serum FSH (DELFIA); conditions: healthy male volunteers, 4, 8, 16 mg q.d. or 12 mg b.i.d. oral
Excerpt: as §11, §12, §13, §14

testosterone [9] = experiment: Experiment 3: multiple oral dose study, serum testosterone (DELFIA)
Excerpt: as §11, §12
Freeze dried cake of compound 1 (Batch No. CW 186) was supplied in 10 mL vials (50 mg active entity in 10 mL vials). The freeze dried cake was reconstituted with sterile de-ionized water B.P and subsequently diluted with sterile de-ionized water to a dose volume of 50 mL. Compound 1 was administered as an oral solution (50 mL) according to the following schedule: • Group 1: a single dose of 4 mg compound 1 on day 1 followed by once daily dosing of 4 mg compound 1 on days 4 to 13 • Group 2: a single dose of 8 mg compound 1 on day 1 followed by once daily dosing of 8 mg compound 1 on days 4 to 13 • Group 3: a single dose of 16 mg compound 1 on day 1 followed by once daily dosing of 16 mg compound 1 on days 4 to 13 • Group 4: a single dose of 12 mg compound 1 on day 1, twice daily dosing of 12 mg compound 1 on days 4 to 12 followed by a single dose of 16 mg compound 1 on day 13
For group 5 a dose titration was used. In this group no samples for LH, FSH and testosterone were taken. […]
as §14

LH [10] = experiment: Experiment 4: single oral dose pharmacodynamic study, serum LH (DELFIA); conditions: healthy male volunteers, single oral doses 4, 8, 16 mg
Excerpt: (§15) A phase I, double-blind, parallel groups, placebo-controlled, cross-over, pharmacodynamic study with compound 1 in healthy male volunteers to assess glycinergic responses in cerebro-spinal fluid and plasma after single oral doses
(§16) This was a double-blind, placebo-controlled, parallel group trial in 15 subjects, randomized to 3 parallel groups of 5 subjects each. The subjects received two single doses in a randomized cross-over design. There was an interval of at least 3 days between the drug administrations. Subjects were male volunteers with a good physical and mental health, aged 18-45 years, body mass index 18-28 kg/m^2.
(§17) A freeze dried cake of compound 1 (Batch No CW122) was reconstituted with sterile water and subsequently further diluted with orange juice to a total volume of 200 mL for oral administration. Dose levels used were: • Group 1: 8 mg compound 1 and […] • Group 2: 16 mg compound 1 and placebo • Group 3: 8 mg compound 1 and 4 mg compound 1
(§18) Serum samples for LH, FSH and testosterone analysis were taken at time points: pre-dose and 1, 2, 3, 4, 6 and 12 hours post dose. Serum was stored at −40° C.
as §3

FSH [11] = experiment: Experiment 4: single oral dose pharmacodynamic study, serum FSH (DELFIA); conditions: healthy male volunteers, single oral doses 4, 8, 16 mg
Excerpt: as §15, §16, §17, §18, §3

testosterone [12] = experiment: Experiment 4: single oral dose pharmacodynamic study, serum testosterone (DELFIA); conditions: healthy male volunteers, single oral doses 4, 8, 16 mg
Excerpt: as §15, §16, §17, §18, §3

[13] = 0-24 h, compared with adjusted Cmin
[14] = decrease generally largest after 16 mg

COc1ccc2c(c1)CC[C@H](CN(C)CC(=O)O)[C@@H]2c1ccccc1.Cl [compound 1]
treatment effect on LH levels (decrease) (LH [1]): statistically significant treatment effect
FSH concentrations, linear contrast on dose (FSH [2]): significant linear decreases with rising doses
testosterone concentrations, linear contrast on dose (testosterone [3]): significant linear decreases with rising doses
adjusted Cmin LH (LH [4]): decrease with increasing active dose
time of largest LH decrease post dose (LH [4]): approximately 4 h
adjusted Cmean LH (LH [4]; [13]): decreases are smaller and less consistent
LH concentrations after treatment (LH [4]; decreases larger at increasing doses): decrease after compound 1 treatment
adjusted Cmin FSH (FSH [5]): decrease with increasing active dose
effect on FSH concentrations (FSH [5]): not clearly visible
adjusted Cmean FSH (FSH [5]; [13]): decreases are smaller and less consistent
adjusted Cmin Testosterone (testosterone [6]): decrease with increasing active dose
adjusted Cmean testosterone (testosterone [6]; [13]): decreases are smaller and less consistent
testosterone concentrations after treatment (testosterone [6]; decreases larger at increasing doses, somewhat slower than LH): decrease after compound 1 treatment
time of maximum decreases in LH after dosing (LH [7]): 2 h
mean LH values (LH [7]; [14]): decreased following dosing
time of maximum decrease in FSH values post-dose (FSH [8]): 6 to 12 h
mean FSH values (FSH [8]; [14]): decreased following dosing
time post-dose until which testosterone levels dropped (testosterone [9]; healthy male volunteers, 4, 8, 16 mg q.d. or 12 mg b.i.d. oral): 6 to 12 h
testosterone levels after dosing (testosterone [9]; healthy male volunteers, 4, 8, 16 mg q.d. or 12 mg b.i.d. oral, partly circadian rhythm, afterwards back to approximately baseline): dropped sharply after dosing
magnitude of the testosterone decrease compared with placebo (testosterone [9]; largest decreases in the 16 mg q.d. and 12 mg b.i.d groups): generally larger following administration of compound 1
LH suppression (LH [10]): suppressed to some extent
effect on FSH (FSH [11]): No effect
testosterone suppression (testosterone [12]): suppressed to some extent
